Test results reported in PMC5569891 (Chembiochem : a European journal of chemical biology, 2017).

Target: T1, HsSQS (Homo sapiens, UniProt P37268)
T1 sequence (P37268 1-417): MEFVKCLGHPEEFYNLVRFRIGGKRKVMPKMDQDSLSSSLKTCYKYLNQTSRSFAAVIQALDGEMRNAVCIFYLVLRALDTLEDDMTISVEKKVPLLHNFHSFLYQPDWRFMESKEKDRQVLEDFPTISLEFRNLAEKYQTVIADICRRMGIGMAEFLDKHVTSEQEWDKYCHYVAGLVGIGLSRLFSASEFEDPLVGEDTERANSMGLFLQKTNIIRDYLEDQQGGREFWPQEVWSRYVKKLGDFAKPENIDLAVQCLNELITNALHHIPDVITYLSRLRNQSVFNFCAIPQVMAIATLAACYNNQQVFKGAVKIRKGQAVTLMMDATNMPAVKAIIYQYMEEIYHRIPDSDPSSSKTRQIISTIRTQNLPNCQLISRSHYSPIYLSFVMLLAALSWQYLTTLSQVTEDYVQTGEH
Assay: LC-MS of products
Format: biochemical
Conditions: no NADPH

CC(C)=CCC/C(C)=C/CC/C(C)=C/COP(=O)(O)OP(=O)(O)O [compound 1, farnesyl diphosphate]
LC-MS of products (PSPP): LC-MS traces showing reaction products of NmHpnD+FPP (in blue) and HsSQS+FPP (in red)
